Several values for one entry are separate records, joined by “and”; a condition that tells them apart may be missing. Identical values can stand only once. Like-named read-outs stand apart in the source and are kept apart here.
Key:
[1] = test system: L. salivarius MP98; assay: Sensitivity to antibiotics by E-test (MIC); assay type: cell-based, Ligilactobacillus salivarius; parameters: MIC value: unit not given here
[2] = Recurrent gout trial: gout episodes and intake of gout-related drugs; assay type: in vivo, human; settings: control group (allopurinol), individual patients 1-15
[3] = human, in vivo; cited from earlier work
[4] = Recurrent gout trial: oxidative stress (OS)-related parameters and NOx in plasma; assay type: in vivo, human
[5] = Recurrent gout trial: blood biochemical parameters (uric acid, lipids, transaminases); assay type: in vivo, human
[6] = drug intake recorded through the study
[7] = control group (allopurinol), individual patients 1-15, plasma, after finishing the study
[8] = control group, before starting the study, individual patients 1-15
[9] = control group, before starting the study, individual patients 1-15, normalized per mg protein
[10] = control group, before starting the study, individual patients 1-15, plasma concentration (µmol/L)
[11] = control group (allopurinol), individual patients 1-15, serum, after finishing the study
[12] = MIC of the antibiotic to L. salivarius MP98, E-test

## NC[C@H]1O[C@H](O[C@H]2[C@H](O)[C@@H](O[C@H]3O[C@H](CO)[C@@H](O)[C@H](N)[C@H]3O)[C@H](N)C[C@@H]2N)[C@H](O)[C@@H](O)[C@@H]1O [KAN, kanamycin]
[1]; Ligilactobacillus salivarius, MIC of the antibiotic to L. salivarius MP98
  MIC: 128 µg/mL

## Oc1ncnc2[nH]ncc12 [allopurinol]
[2]
  Gout episodes (during study period): 0 (2×) and 1 (8×) and 2 (4×) and 3
[2]; 9 months before the study (baseline)
  Gout episodes (9 previous months): 1 (5×) and 2 (8×) and 0 and 3
[2]; [6]
  Doses Allopurinol: 180 (4×) and 175 (2×) and 174 (2×) and 168 and 178 and 179 (2×) and 172 and 176 and 177
  Doses Colchicin: 0 (2×) and 4 (6×) and 8 (3×) and 2 (2×) and 12 and 6
  Doses ibuprofen and similar AINS: 0 (2×) and 8 and 12 (2×) and 6 (4×) and 16 and 4 (2×) and 1 and 3 (2×)
[3]
  patients in gout therapy achieving serum urate levels <6 mg/dl (<0.35 mmol/L): 20-40%
[4]; [7]
  8-isoprostaglandin Fzs: 166.1 pg/mL and 162.9 pg/mL and 205.9 pg/mL and 164.8 pg/mL and 175.0 pg/mL and 192.4 pg/mL and 204.7 pg/mL and 165.2 pg/mL and 205.1 pg/mL and 207.1 pg/mL and 195.9 pg/mL and 164.5 pg/mL and 186.3 pg/mL and 191.9 pg/mL and 175.8 pg/mL
  AOPPs: 54.87 µmol/L and 57.96 µmol/L and 66.12 µmol/L and 58.27 µmol/L and 62.35 µmol/L and 64.76 µmol/L and 60.56 µmol/L and 57.71 µmol/L and 65.70 µmol/L and 63.68 µmol/L and 60.94 µmol/L and 59.37 µmol/L and 61.97 µmol/L and 64.14 µmol/L and 59.82 µmol/L
  AOPPs (nmol/mg protein): 0.72 nmol/mg protein and 0.75 nmol/mg protein (2×) and 0.83 nmol/mg protein (2×) and 0.76 nmol/mg protein (2×) and 0.78 nmol/mg protein (2×) and 0.80 nmol/mg protein (2×) and 0.77 nmol/mg protein and 0.82 nmol/mg protein and 0.81 nmol/mg protein (2×)
  MDA: 1.78 μmol/L and 1.83 μmol/L and 2.37 μmol/L and 1.84 μmol/L (2×) and 2.14 μmol/L and 2.09 μmol/L and 1.81 μmol/L (2×) and 2.29 μmol/L and 2.22 μmol/L and 2.01 μmol/L and 1.74 μmol/L and 2.27 μmol/L and 2.08 μmol/L
  NOx: 21.32 µmol/L and 19.26 µmol/L and 23.87 µmol/L and 22.75 µmol/L and 21.13 µmol/L and 24.97 µmol/L and 24.59 µmol/L and 22.33 µmol/L and 26.43 µmol/L and 28.07 µmol/L and 24.07 µmol/L and 24.81 µmol/L and 25.79 µmol/L and 25.95 µmol/L and 22.68 µmol/L
  Nitrate: 16.92 µmol/L and 16.86 µmol/L and 28.79 µmol/L and 19.85 µmol/L and 21.04 µmol/L and 23.87 µmol/L and 22.81 µmol/L and 17.40 µmol/L and 26.73 µmol/L and 27.47 µmol/L and 22.10 µmol/L and 17.49 µmol/L and 21.36 µmol/L and 25.27 µmol/L and 20.31 µmol/L
  Nitrite: 1.82 µmol/L and 1.87 µmol/L and 2.29 µmol/L and 1.67 µmol/L and 2.03 µmol/L and 2.24 µmol/L and 2.27 µmol/L and 1.84 µmol/L and 2.02 µmol/L and 2.22 µmol/L and 2.19 µmol/L and 1.77 µmol/L and 2.26 µmol/L and 2.20 µmol/L and 1.88 µmol/L
  SH groups: 429.5 µmol/L and 423.6 µmol/L and 448.1 µmol/L and 429.7 µmol/L and 435.4 µmol/L and 430.2 µmol/L and 431.0 µmol/L and 426.3 µmol/L and 451.8 µmol/L and 436.7 µmol/L and 436.1 µmol/L and 433.4 µmol/L and 436.8 µmol/L and 432.7 µmol/L and 431.3 µmol/L
  SH groups (nmol/mg protein): 5.19 nmol/mg protein and 5.21 nmol/mg protein and 5.72 nmol/mg protein and 5.41 nmol/mg protein (2×) and 5.42 nmol/mg protein and 5.36 nmol/mg protein and 5.23 nmol/mg protein and 6.02 nmol/mg protein and 5.59 nmol/mg protein and 5.48 nmol/mg protein and 5.47 nmol/mg protein and 5.43 nmol/mg protein and 5.74 nmol/mg protein and 5.52 nmol/mg protein
  TBARM: 22.89 µmol/L and 23.48 µmol/L and 29.92 µmol/L and 27.01 µmol/L and 27.83 µmol/L and 27.59 µmol/L and 29.04 µmol/L and 25.67 µmol/L and 25.91 µmol/L and 28.75 µmol/L and 26.32 µmol/L and 24.81 µmol/L and 27.09 µmol/L and 28.27 µmol/L and 24.86 µmol/L
[4]; [8]
  8-isoprostaglandin F2α: 161.7 pg/mL and 209.0 pg/mL and 162.6 pg/mL and 177.1 pg/mL and 195.2 pg/mL and 207.3 pg/mL and 160.9 pg/mL and 202.4 pg/mL and 207.5 pg/mL and 194.8 pg/mL and 166.1 pg/mL and 184.9 pg/mL and 195.7 pg/mL and 174.4 pg/mL and 162.2 pg/mL
  MDA: 1.86 μmol/L and 2.41 μmol/L (2×) and 1.78 μmol/L and 2.02 μmol/L and 1.99 μmol/L and 1.92 μmol/L and 1.79 μmol/L and 2.17 μmol/L and 2.09 μmol/L and 1.83 μmol/L and 2.19 μmol/L and 2.00 μmol/L and 1.87 μmol/L and 1.74 μmol/L
  NOx: 19.01 µmol/L and 18.98 µmol/L and 25.67 µmol/L and 21.48 µmol/L and 21.66 µmol/L and 25.18 µmol/L and 24.07 µmol/L and 20.01 µmol/L and 28.23 µmol/L and 27.09 µmol/L and 25.56 µmol/L and 22.29 µmol/L and 26.86 µmol/L and 24.48 µmol/L and 23.16 µmol/L
  Nitrate: 16.85 µmol/L and 16.77 µmol/L and 31.12 µmol/L and 19.64 µmol/L and 22.48 µmol/L and 23.99 µmol/L and 20.29 µmol/L and 16.93 µmol/L and 27.46 µmol/L and 28.65 µmol/L and 20.92 µmol/L and 17.03 µmol/L and 22.52 µmol/L and 24.81 µmol/L and 20.02 µmol/L
  Nitrite: 1.73 μmol/L and 1.81 μmol/L and 2.41 μmol/L and 1.79 μmol/L and 2.12 μmol/L and 2.11 μmol/L (2×) and 2.06 μmol/L and 1.71 μmol/L and 2.14 μmol/L (2×) and 2.27 μmol/L and 1.84 μmol/L and 2.21 μmol/L and 1.92 μmol/L
  TBARM: 22.93 µmol/L and 31.02 µmol/L and 24.76 µmol/L and 26.91 µmol/L and 28.14 µmol/L and 27.31 µmol/L and 24.97 µmol/L and 27.28 µmol/L and 27.99 µmol/L and 27.43 µmol/L and 23.07 µmol/L and 28.11 µmol/L and 28.00 µmol/L and 25.79 µmol/L and 23.16 µmol/L
[4]; [9]
  AOPPs: 0.74 nmol/mg protein and 0.83 nmol/mg protein and 0.75 nmol/mg protein (2×) and 0.78 nmol/mg protein and 0.81 nmol/mg protein (2×) and 0.77 nmol/mg protein (2×) and 0.73 nmol/mg protein (2×) and 0.84 nmol/mg protein and 0.82 nmol/mg protein and 0.79 nmol/mg protein and 0.80 nmol/mg protein
  SH groups: 5.23 nmol/mg protein and 5.84 nmol/mg protein and 5.37 nmol/mg protein and 5.44 nmol/mg protein and 5.45 nmol/mg protein and 5.39 nmol/mg protein and 5.11 nmol/mg protein and 6.10 nmol/mg protein and 5.54 nmol/mg protein and 5.59 nmol/mg protein and 5.42 nmol/mg protein and 5.48 nmol/mg protein and 5.79 nmol/mg protein and 5.51 nmol/mg protein and 5.14 nmol/mg protein
[4]; [10]
  AOPPs: 57.87 µmol/L and 65.77 µmol/L and 59.02 µmol/L and 62.29 µmol/L and 64.83 µmol/L and 60.36 µmol/L and 58.95 µmol/L and 65.81 µmol/L and 63.52 µmol/L and 61.07 µmol/L and 59.50 µmol/L and 61.92 µmol/L and 64.34 µmol/L and 59.71 µmol/L and 55.91 µmol/L
  SH groups: 425.7 μmol/L and 442.0 μmol/L and 427.9 μmol/L and 441.5 μmol/L and 432.7 μmol/L (2×) and 433.9 μmol/L and 425.9 μmol/L and 448.3 μmol/L and 434.9 μmol/L (2×) and 438.4 μmol/L and 435.1 μmol/L and 432.2 μmol/L and 426.6 μmol/L
[5]; [11]
  GOT (UI/L): 20.05 UI/L and 22.63 UI/L and 37.84 UI/L and 37.28 UI/L and 33.57 UI/L and 27.60 UI/L and 37.24 UI/L and 21.94 UI/L and 40.68 UI/L and 41.07 UI/L and 39.21 UI/L and 31.82 UI/L and 32.99 UI/L and 38.57 UI/L and 32.42 UI/L
  GPT (UI/L): 19.97 UI/L and 27.46 UI/L and 44.90 UI/L and 27.61 UI/L (2×) and 43.27 UI/L and 53.45 UI/L and 34.73 UI/L and 27.08 UI/L and 59.99 UI/L and 53.87 UI/L and 35.57 UI/L and 39.40 UI/L and 44.47 UI/L and 33.84 UI/L
  Total cholesterol: 172.63 mg/dL and 176.04 mg/dL and 206.72 mg/dL and 196.82 mg/dL and 183.24 mg/dL and 194.32 mg/dL and 176.47 mg/dL and 170.51 mg/dL and 224.95 mg/dL and 199.08 mg/dL and 193.84 mg/dL and 181.94 mg/dL and 178.63 mg/dL and 187.14 mg/dL and 183.02 mg/dL
  Triglycerides: 157.81 mg/dL and 153.17 mg/dL and 169.90 mg/dL and 158.47 mg/dL and 165.58 mg/dL and 164.25 mg/dL and 162.81 mg/dL and 165.45 mg/dL and 189.72 mg/dL and 171.63 mg/dL and 154.57 mg/dL and 165.16 mg/dL and 163.83 mg/dL and 160.02 mg/dL and 168.91 mg/dL
  Uric acid: 7.11 mg/dl and 7.46 mg/dl and 9.68 mg/dl and 8.87 mg/dl and 7.64 mg/dl and 9.61 mg/dl and 8.69 mg/dl and 7.90 mg/dl and 10.92 mg/dl and 10.87 mg/dl and 9.12 mg/dl (2×) and 8.57 mg/dl and 10.49 mg/dl and 9.38 mg/dl
[5]; control group, 100-300 mg/daily for one year
  any parameter, T1 against T2 samples: no differences in any parameter
[5]; [8]
  GOT: 20.94 UI/L and 24.52 UI/L and 38.57 UI/L and 36.71 UI/L and 35.83 UI/L and 25.11 UI/L and 35.37 UI/L and 21.62 UI/L and 42.75 UI/L and 40.28 UI/L and 37.01 UI/L and 30.17 UI/L and 34.88 UI/L and 39.64 UI/L and 30.53 UI/L
  GPT: 19.32 UI/L and 25.75 UI/L and 47.78 UI/L and 29.19 UI/L and 42.81 UI/L and 55.07 UI/L and 30.64 UI/L and 25.55 UI/L and 54.98 UI/L and 49.91 UI/L and 37.56 UI/L and 30.07 UI/L and 40.39 UI/L and 45.29 UI/L and 30.37 UI/L
  Total cholesterol: 170.45 mg/dl and 179.39 mg/dl and 208.16 mg/dl and 195.37 mg/dl (2×) and 188.31 mg/dl and 192.43 mg/dl and 177.63 mg/dl and 169.04 mg/dl and 229.46 mg/dl and 197.18 mg/dl and 184.41 mg/dl and 176.25 mg/dl and 184.30 mg/dl and 185.19 mg/dl
  Triglycerides: 152.07 mg/dL and 151.28 mg/dL and 172.29 mg/dL and 155.83 mg/dL and 166.74 mg/dL and 162.41 mg/dL and 168.02 mg/dL and 162.33 mg/dL and 187.99 mg/dL and 172.25 mg/dL and 160.86 mg/dL and 162.25 mg/dL and 167.27 mg/dL and 162.91 mg/dL and 168.28 mg/dL
  Uric acid: 7.03 mg/dl and 7.53 mg/dl and 9.97 mg/dl and 8.44 mg/dl (2×) and 7.56 mg/dl and 9.99 mg/dl and 7.81 mg/dl and 10.64 mg/dl and 11.69 mg/dl and 9.20 mg/dl and 8.24 mg/dl and 10.05 mg/dl and 9.92 mg/dl and 9.06 mg/dl

## Cc1nc(-c2ccc(OCC(C)C)c(C#N)c2)sc1C(=O)O [febuxostat]
[3]
  patients in gout therapy achieving serum urate levels <6 mg/dl (<0.35 mmol/L): 45-67%

## gentamycin
[1]; [12]
  MIC value: 2

## penicillin
[1]
  MIC value: 0.25

## virginiamycin
[1]; [12]
  MIC value: 0.25

Source: patent US20260250626A1, “LACTOBACILLUS SALIVARIUS STRAINS AND USES THEREOF” (CHEMO RESEARCH, S.L., priority 2022, published 2026)
